Experiments:
HDAC = experiment: Assay of enzyme inhibition of HDAC (BIOMOL kit, fluorescence); type: biochemical; conditions: nuclear fraction of Hela cells; substrate 200 µM; 15 min at RT
Method: The in-vitro activity of HDAC inhibitors was assayed using a BIOMOL Kit, according to the instructions from the manufacturer (Biomolecular Research Laborator). 15 µl of 30 x diluted nuclear fraction of Hela cells, was diluted to 50 µl with the assay buffer containing the HDAC inhibitor and the substrate (lysine with acetylated amino group on the side chain) at a concentration of 200 µM. The samples were incubated for 15 min at RT and then exposed to a developer (10 min at RT). In this last step a fluorophore was produced, whose fluorescence was measured using an excitation wavelength of 355 nm and an emission at 460 nm. The IC50 was calculated using GraphPad Software.

HCT-116 = experiment: Cell growth, CellTiter-Glo Luminescent Cell Viability Assay (antiproliferative assay); type: cell-based; conditions: Homo sapiens; HCT-116 cells, incubated for 72 h; read-out: HCT116 IC50
From the text: (§1) CellTiter-Glo® Luminescent Cell Viability Assay (Promega) is a homogeneous method of determining the number of viable cells in culture based on quantitation of the present ATP, which indicates the presence of metabolically active cells. The homogeneous assay procedure involves addition of a single reagent (CellTiter-Glo® Reagent) directly to the cells, which leads to cell lysis and generation of a luminescent signal proportional to the amount of the ATP and the number of cells present in culture. The assay relies on the properties of a proprietary thermostable luciferase (Ultra-Glo® recombinant luciferase), which generates a luminescent signal. K562, A549, and HCT-116 cells, in exponential growth, were incubated for 72 h with different concentrations of the inhibitors. After 72 h, a volume of CellTiter-Glo® Reagent equal to the volume of cell culture medium was added. The content was mixed for 2 min to induce cell lysis. The luminescence was recorded after further 10 min at RT in order to obtain a stable luminescent signal.
(§2) The IC50 was calculated using GraphPad Software.

A549 = experiment: as above; type: cell-based; conditions: Homo sapiens; A549 cells, incubated for 72 h
From the text: as §1, §2

K562 = experiment: as above; type: cell-based; conditions: Homo sapiens; K562 cells, incubated for 72 h
From the text: as §1, §2

IC50 (HDAC) [nM] | IC50 (HCT-116) [nM] | IC50 (A549) [nM] | IC50 (K562) [nM] | SMILES
≤ 100 | ≤ 1000 | ≤ 1000 | ≤ 1000 | O=C(/C=C/c1ccc2c(c1)C(=O)NC1(CCCN(CCc3ccccc3)C1)O2)NO (racemic) [Example 43, (±)-(E)-3-{1'-(2-Phenyl-ethyl)-3,4-dihydro-4-oxo-spiro[2H-(1,3)-benzoxazine-2,3'-piperidin]-6-yl}-N-hydroxy-acrylamide]
≤ 100 | ≤ 1000 | ≤ 1000 | ≤ 1000 | O=C(/C=C/c1ccc2c(c1)C(=O)CC1(CCCN(Cc3ccccc3)C1)O2)NO (racemic) [Example 13, (±)-(E)-3-[1'-Benzyl-4-oxo-spiro(chromane-2,3'-piperidine)-6-yl]-N-hydroxy-acrylamide]
100 to 1000 | ≤ 1000 | ≤ 1000 | ≤ 1000 | O=C(/C=C/c1ccc2c(c1)C(=O)CC1(CN(CCc3ccccc3)C1)O2)NO [Example 32, (E)-3-[1'-(2-Phenyl-ethyl)-4-oxo-spiro(chromane-2,3'-azetidine)-6-yl]-N-hydroxy-acrylamide]
≤ 100 | ≤ 1000 | ≤ 1000 | ≤ 1000 | O=C(/C=C/c1ccc2c(c1)C(=O)CC1(CCN(Cc3ccccc3)C1)O2)NO (single isomer, unassigned; (-)) [Example 3, (-)-(E)-3-[1 '-Benzyl-4-oxo-spiro(chromane-2,3'-pyrrolidine)-6-yl]-N-hydroxy-acrylamide]
≤ 100 | ≤ 1000 | 1000 to 3000 | ≤ 1000 | O=C(/C=C/c1ccc2c(c1)C(=O)CC1(CCCN(Cc3ccccc3)C1)O2)NO (single isomer, unassigned; (-)) [Example 17, (-)-(E)-3-[1'-Benzyl-4-oxo-spiro(chromane-2,3'-piperidine)-6-yl]-N-hydroxy-acrylamide]
≤ 100 | ≤ 1000 | ≤ 1000 | ≤ 1000 | O=C(/C=C/c1ccc2c(c1)C(=O)CC1(CCCN(CCc3ccccc3)CC1)O2)NO (racemic) [Example 28, (±)-(E)-3-[1'-(2-Phenyl-ethyl)-4-oxo-spiro(chromane-2,4'-azepane)-6-yl]-N-hydroxy-acrylamide]

The remaining lines, values behind:

SMILES | IC50 (HDAC) [nM] | IC50 (HCT-116) [nM] | IC50 (A549) [nM] | IC50 (K562) [nM]
O=C(/C=C/c1ccc2c(c1)C(=O)CC1(CCN(Cc3ccccc3)C1)O2)NO (racemic) [Example 2, (±)-(E)-3-[1'-Benzyl-4-oxo-spiro(chromane-2,3'-pyrrolidine)-6-yl]-N-hydroxy-acrylamide] | ≤ 100 | ≤ 1000 | ≤ 1000 | ≤ 1000
CC(=O)N1CCC2(CC(=O)c3cc(/C=C/C(=O)NO)ccc3O2)C1 (racemic) [Example 5, (±)-(E)-3-[1'-Acetyl-4-oxo-spiro(chromane-2,3'-pyrrolidine)-6-yl]-N-hydroxy-acrylamide] | 100 to 1000 | ≥ 3000 | ≥ 3000 | ≥ 3000
O=C(/C=C/c1ccc2c(c1)C(=O)CC1(CCCN(Cc3ccc(F)cc3)CC1)O2)NO (racemic) [Example 29, (±)-(E)-3-[1'-(4-Fluoro-benzyl)-4-oxo-spiro(chromane-2,4'-azepane)-6-yl]-N-hydroxy-acrylamide] | 100 to 1000 | ≤ 1000 | ≤ 1000 | ≤ 1000
CN1CCCC2(CC1)CC(=O)c1cc(/C=C/C(=O)NO)ccc1O2 (racemic) [Example 26, (±)-(E)-3-[1'-Methyl-4-oxo-spiro(chromane-2,4'-azepane)-6-yl]-N-hydroxy-acrylamide] | 100 to 1000 | ≤ 1000 | ≤ 1000 | ≤ 1000
O=C(/C=C/c1ccc2c(c1)C(=O)CC1(CCN(Cc3ccc(F)cc3)C1)O2)NO (racemic) [Example 11, (±)-(E)-3-[1'-(4-Fluoro-benzyl)-4-oxo-spiro(chromane-2,3'-pyrrolidine)-6-yl]-N-hydroxy-acrylamide] | 100 to 1000 | ≤ 1000 | ≤ 1000 | ≤ 1000
O=C(/C=C/c1ccc2c(c1)C(=NO)CC1(CCCN(C3CCCC3)C1)O2)NO (stereo not drawn) [Example 54, (E)-3-(1'-Cyclopentyl-4-(hydroxyimino)spiro[chroman-2,3'-piperidine]-6-yl)-N-hydroxyacrylamide] | ≤ 100 | ≤ 1000 | ≤ 1000 | ≤ 1000
Cn1cc(CN2CCC3(CC(=O)c4cc(/C=C/C(=O)NO)ccc4O3)C2)c2ccccc21 (racemic) [Example 10, (±)-(E)-3-[1'-(1-Methyl-1H-indol-3-ylmethyl)-4-oxo-spiro(chromane-2,3'-pyrrolidine)-6-yl]-N-hydroxy-acrylamide] | ≤ 100 | ≤ 1000 | ≤ 1000 | ≤ 1000
O=C(/C=C/c1ccc2c(c1)C(=O)CC1(CN(Cc3ccc(F)cc3)C1)O2)NO [Example 33, (E)-3-[1'-(4-Fluoro-benzyl)-4-oxo-spiro(chromane-2,3'-azetidine)-6-yl]-N-hydroxy-acrylamide] | 100 to 1000 | ≤ 1000 | ≤ 1000 | ≤ 1000
Cn1cc(CN2CC3(CC(=O)c4cc(/C=C/C(=O)NO)ccc4O3)C2)c2ccccc21 [Example 44, (E)-3-[1'-(1-Methyl-1H-indol-3-ylmethyl)-4-oxo-spiro(chromane-2,3'-azetidine)-6-yl]-N-hydroxy-acrylamide] | ≤ 100 | ≤ 1000 | ≤ 1000 | ≤ 1000
O=C(/C=C/c1ccc2c(c1)C(=O)CC1(CCCN(C(=O)c3ccccc3)C1)O2)NO (racemic) [Example 21, (±)-(E)-3-[1'-Benzoyl-4-oxo-spiro(chromane-2,3'-piperidine)-6-yl]-N-hydroxy-acrylamide] | 100 to 1000 | 1000 to 3000 | ≥ 3000 | 1000 to 3000
O=C(/C=C/c1ccc2c(c1)C(=O)CC1(CCN(C(=O)c3ccccc3)C1)O2)NO (racemic) [Example 6, (±)-(E)-3-[1'-Benzoyl-4-oxo-spiro(chromane-2,3'-pyrrolidine)-6-yl]-N-hydroxy-acrylamide] | 100 to 1000 | ≤ 1000 | 1000 to 3000 | ≤ 1000
O=C(/C=C/c1ccc2c(c1)C(=O)CC1(CNC1)O2)NO [Example 30, (E)-3-[4-Oxo-spiro(chromane-2,3'-azetidine)-6-yl]-N-hydroxy-acrylamide] | 100 to 1000 | ≥ 3000 | ≥ 3000 | 1000 to 3000

— EP2488529B1, “Spirocyclic derivatives as histone deacetylase inhibitors” (DAC S.r.l., priority 2009, dated 2011)
